Test results published in patent publication US20240150293A1, “SPIROCYCLOHEXANE DERIVATIVES, PHARMACEUTICAL COMPOSITIONS CONTAINING THEM AND THEIR USES AS ANTI-APOPTOTIC INHIBITORS” (LES LABORATOIRES SERVIER, priority 2021, published 2024).
pIC50, pKi: −log10 of the molar value. Where two headings read alike, the source gives them in different places.

How the values were obtained:
[1] = test system: H929 multiple myeloma tumor line; experiment: In vitro cytotoxicity, MTT assay (Example B, Method A); assay type: cell-based; details: H929 cells, 48 hours exposure, read-out: C50
Procedure: The cytotoxicity studies were carried out on the H929 multiple myeloma tumor line.
The cells are distributed onto microplates and exposed to the test compounds for 48 hours. The cell viability is then quantified by a colorimetric assay, the Microculture Tetrazolium Assay (Carmichael et al, Cancer Res. 1987, 47, 939-942).
The results are expressed in C50 which means concentration corresponding to […] of effect/inhibition.

[2] = target: Cy5-labelled Mcl1 (amino acids 171-321) C286S protein (UniProtKB Q07820) (Homo sapiens (Human), UniProt Q07820, C286S); experiment: Inhibition of Mcl-1 by the fluorescence quenching assay (Example A, Method B); assay type: binding
Outline: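 Cy5-labelled Mcl1 171-321 C286S (1 nM) quenched by TQ5WS-labelled PUMA peptide (10, 20 or 400 nM); displacement raises fluorescence (Ex 620/Em 680 nm). Buffer 10 mM HEPES, 150 mM NaCl, 0.05% Tween 20, pH 7.4, 5% DMSO; 2 h at room temperature, 11-point curves, IC50 converted to Ki (cKi/eKi).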

Sequence of Cy5-labelled Mcl1 (amino acids 171-321) C286S protein (Q07820 171-321 C286S): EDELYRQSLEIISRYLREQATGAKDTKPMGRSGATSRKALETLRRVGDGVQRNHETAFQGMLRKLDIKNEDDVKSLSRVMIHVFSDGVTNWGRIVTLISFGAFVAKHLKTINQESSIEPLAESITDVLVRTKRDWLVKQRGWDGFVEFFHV

O=C(O)[C@]1(Nc2cccc(Cl)c2)CC[C@]2(CC1)C(CC(F)COc1ccnc3c1CCCC3)=Cc1ccccc12 (single isomer, unassigned) [Example 505, (1r,4r)-4-(3-chloroanilino)-2′-{2-fluoro-3-[(5,6,7,8-tetrahydroquinolin-4-yl)oxy]propyl}spiro[cyclohexane-1,1′-indene]-4-carboxylic acid]
pIC50 ([1]; Homo sapiens, NCI-H929, 48 h): 5.62
pKi [2]: 7.63

CC(CC1Cc2ccccc2[C@]12CC[C@@](Nc1cccc(Cl)c1)(C(=O)O)CC2)C1CCC(=O)CC1 (single isomer, unassigned) [Example 571, (1r,4r)-4-(3-chloroanilino)-2′-[2-(4-oxocyclohexyl)propyl]-2′,3′-dihydrospiro[cyclohexane-1,1′-indene]-4-carboxylic acid]
pIC50 [1]: 4.52
pKi [2]: 6.97

C[C@@H](COc1ncnc2c1CCCC2)C[C@H]1Cc2ccccc2[C@]12CC[C@@](Nc1cccc(Cl)c1)(C(=O)O)CC2 [Example 637, (1r,2′S,4S)-4-(3-chloroanilino)-2′-{(2R)-2-methyl-3-[(5,6,7,8-tetrahydroquinazolin-4-yl)oxy]propyl}-2′,3′-dihydrospiro[cyclohexane-1,1′-indene]-4-carboxylic acid]
pIC50 ([1]; Homo sapiens, NCI-H929, 48 h): 5.81
pKi [2]: 8.29

C[C@@H](COc1ccnc2c1[C@H](C)CCC2)C[C@H]1Cc2ccc(Oc3ccccc3)cc2[C@]12CC[C@@](Nc1cccc(Cl)c1)(C(=O)O)CC2 [Example 793, (1r,2′S,4S)-4-(3-chloroanilino)-2′-[(2R)-2-methyl-3-{[(5S)-5-methyl-5,6,7,8-tetrahydroquinolin-4-yl]oxy}propyl]-6′-phenoxy-2′,3′-dihydrospiro[cyclohexane-1,1′-indene]-4-carboxylic acid]
pIC50 ([1]; Homo sapiens, NCI-H929, 48 h): 6.07
pKi [2]: 7.75

C[C@@H](COc1ccnc2ccsc12)C[C@@H]1Cc2cc(F)ccc2[C@]12CC[C@@](Nc1cccc(Cl)c1)(C(=O)O)CC2 [Example 738, (1r,2′R,4R)-4-(3-chloroanilino)-5′-fluoro-2′-{(2R)-2-methyl-3-[(thieno[3,2-b]pyridin-7-yl)oxy]propyl}-2′,3′-dihydrospiro[cyclohexane-1,1′-indene]-4-carboxylic acid]
pIC50 ([1]; Homo sapiens, NCI-H929, 48 h): 6.33
pKi [2]: 8.13

CC(O)c1ccc2c(c1)[C@]1(CC[C@@](Nc3cccc(Cl)c3)(C(=O)O)CC1)[C@@H](C[C@@H](C)COc1ccnc3c1[C@H](C)CC[C@H]3O)C2 (single isomer, unassigned) [Example 862]
pIC50 [1]: 7.13
pKi [2]: 9.95

C[C@@H](COc1ccnc2c1[C@@H](C)CCC2)C[C@H]1Cc2cccc(F)c2[C@]12CC[C@@](Nc1cccc(Cl)c1)(C(=O)O)CC2 [Example 762, (1r,2′S,4S)-4-(3-chloroanilino)-7′-fluoro-2′-[(2R)-2-methyl-3-{[(5S)-5-methyl-5,6,7,8-tetrahydroquinolin-4-yl]oxy}propyl]-2′,3′-dihydrospiro[cyclohexane-1,1′-indene]-4-carboxylic acid]
pIC50 ([1]; Homo sapiens, NCI-H929, 48 h): 6.41
pKi [2]: 7.92

C[C@@H]1CCCc2nccc(OCC(CC3Cc4ccccc4[C@]34CC[C@@](Nc3cccc(Cl)c3)(C(=O)O)CC4)C(F)F)c21 (single isomer, unassigned) [Example 518]
pIC50 [1]: 4.92
pKi [2]: 5.90

O=C(O)[C@]1(Nc2cccc(Cl)c2)CC[C@@]2(CC1)c1ccccc1CC2CC(COc1ccccc1)COc1ccnc2ccsc12 (some centres unmarked) [Example 501, (1r,4r)-4-(3-chloroanilino)-2′-{2-(phenoxymethyl)-3-[(thieno[3,2-b]pyridin-7-yl)oxy]propyl}-2′,3′-dihydrospiro[cyclohexane-1,1′-indene]-4-carboxylic acid]
pIC50 ([1]; Homo sapiens, NCI-H929, 48 h): 6.37
pKi [2]: 8.32

C[C@@H](COc1ccnc2c1[C@H](C)CCC2)CC1Cc2c(F)c(Cl)ccc2[C@]12CC[C@@](Nc1cccc(Cl)c1)(C(=O)O)CC2 (single isomer, unassigned) [Example 749]
pIC50 [1]: 7.14
pKi [2]: 9.49
